We go through seven compounds from patent US4510142A, “Derivatives of biphenyl alkyl carboxylates and their use as medicaments” (Pierre Fabre S.A., priority 1981, dated 1985).

Structures can show the parent of a compound that is named as a salt. Where two headings read alike, the source gives them in different places.

As usually defined, the LD50 is the dose at which mortality reaches 50%.

In data set [1] the test system is carragenine oedema, rat's foot. Briefly: anti-inflammatory oedema test by injecting carragenine into a rat's foot (Winter, Ribley and Nuss). The data set is classed as in vivo. The procedure: Winter, E. Ribley and G. Nuss--Proc. Soc. Exper. Biol. Med., 1962, 111, 544 547.
The products were administered orally in suspension in a Tween-water mixture 2 hours before the experiment. All the administered compounds have a good anti-inflammatory activity. It will particularly be noted that the compound of Example 14 has a DE50 of 3 mg/kg.

The next data set can be described thus: in vivo. The following applies: mouse, in vivo, po. The procedure: (§1) A toxicity study was carried out on conventional mice weighing about 20 grams.
(§2) The compounds corresponding to the general formula I according to the present invention and the pharmaceutically acceptable salts thereof were administered orally. The DL50 was calculated according to the method by L. C. Miller and M. L. Tainter--Proc. Soc. Exper.

For data set [2], the system named is pain (phenyl benzoquinone injection). Description: pain-killing activity according to Siegmund (phenyl benzoquinone injection). The class given is in vivo. The following applies: oral, 30 minutes before injection of phenyl benzoquinone; read-out: DE50 (pain-killing activity). The procedure:
The pain-killing activity was studied according to Siegmund--J. Pharm. Exptl. ther., 1957, 119,453.
The compounds according to the present invention were administered orally 30 minutes before the injection of phenyl benzoquinone.

A further data set concerns conventional mice. Briefly: in vivo. The following applies: p.o.; comparison products. As to the method: as §1, §2
[3] abbreviates: Rattus norvegicus, po, read-out: DE50 (carragenine).
The mark [4] stands for this setting: Rattus norvegicus, po, comparison products, read-out: DE50 (carragenine).

On to `CC(=O)Oc1ccccc1C(=O)O` [Aspirin], for which the ED50 in data set [1] (setting [3]) was 135 mg/kg.
With `CC(C(=O)OCC(=O)N1CCN(C)CC1)c1ccc(-c2ccccc2Cl)cc1` (stereo not drawn) [Example 12, 2-(4-methylpiperazino)-2-oxoethyl 2-(2'-chloro-4-biphenylyl)propionate hydrochloride], the LD50 in the data set “in vivo” was over 500 mg/kg. The ED50 in data set [2] was 7 mg/kg.
As to `CC(C(=O)OCC(=O)N1CCC(c2ccccc2)CC1)c1ccc(-c2ccccc2Cl)cc1` (stereo not drawn) [Example 14, 2-(4-phenylpiperidino)-2-oxoethyl 2-(2'-chloro-4-biphenylyl)propionate], the LD50 in “in vivo” is over 500 mg/kg. In addition, the ED50 in data set [1] (rat, oral suspension in Tween-water, 2 hours before the experiment, read-out: DE50 (anti-inflammatory activity)) was 3 mg/kg; in data set [2] it was 5 mg/kg.
`CC(C)Cc1ccc(C(C)C(=O)O)cc1` (stereo not drawn) [Ibuprofen]: the ED50 in data set [1] (setting [4]) stood at 14 mg/kg.
In turn, `COc1ccc2c(c1)c(CC(=O)O)c(C)n2C(=O)c1ccc(Cl)cc1` [Indometacine] came in with an LD50 in the data set with conventional mice of 20 mg/kg. Moreover, the ED50 in data set [1] (setting [3]) was determined as 4 mg/kg.
With `COc1ccc2cc([C@H](C)C(=O)O)ccc2c1` [Naproxen], the ED50 in data set [1] (setting [4]) worked out at 5 mg/kg.
Phenylbutanone registered an LD50 in the data set on conventional mice of 400 mg/kg. Besides, the “DE50 (carragenine)” value in data set [1] (p.o., comparison products) was 30 mg/kg.
